The text below walks through data of US9963463B2, “Urea-substituted indanes as P38 map kinase inhibitors” (TORRENT PHARMACEUTICALS LIMITED, priority 2014, dated 2018).

The inhibition is the percentage by which the read-out fell short of the control.

T1 sequence (Q16539 whole entry): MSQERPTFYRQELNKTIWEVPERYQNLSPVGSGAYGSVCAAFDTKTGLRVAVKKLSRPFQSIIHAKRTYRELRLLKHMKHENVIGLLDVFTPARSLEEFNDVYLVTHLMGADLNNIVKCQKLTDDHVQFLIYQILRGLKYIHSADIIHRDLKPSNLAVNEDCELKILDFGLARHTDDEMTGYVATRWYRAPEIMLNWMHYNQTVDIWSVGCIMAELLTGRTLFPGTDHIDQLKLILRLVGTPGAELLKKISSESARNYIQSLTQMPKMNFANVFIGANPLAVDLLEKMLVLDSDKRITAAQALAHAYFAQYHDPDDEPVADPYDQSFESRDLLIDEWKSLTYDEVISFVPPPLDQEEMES

The first experiment addresses T1, purified recombinant human p38 alpha MAPK (Homo sapiens, UniProt Q16539).
T1 construct: purchased Millipore, USA
As to the kind of experiment: Inhibition of p38 alpha MAPK activity, TR-FRET kinase assay. Type of experiment: biochemical. To be noted: Concentration 100 nM; read-out: P38α Inhibition. How it is done:
Inhibition of p38 Alpha MAPK Activity: Time-Resolved Fluorescence Resonance Energy Transfer Kinase Standard Assay (TR-FRET Assay)
Compounds of present invention at various concentrations were premixed with DMSO. The experiment was initiated by mixing 0.5%-1.0% DMSO as vehicle/compounds with purified recombinant human p38 alpha MAPK (Millipore, USA) in the wells and 15 min incubation at room temperature. Thereafter, 30 nM of Biotinylated GST-ATF2 (Activation transcription Factor2) and 100 μM of ATP were added in to the wells containing reaction mixture, followed by reincubation for 60 minutes at RT. Reaction was terminated by addition of 10 mM of EDTA and detection reagent containing anti-phosphotheronine ATF2 antibody (PerkinElmer®, USA) labeled with europium chelate and APC (Allophycocyanin) labeled streptavidin, into the reaction mixture which was further incubated for 60 minutes at room temperature. The degree of phosphorylation of the substrate (GST-ATF2) was measured using Envision multimode reader (PerkinElmer®). Percentage inhibition of p38 kinase activity was calculated by determining ratio of specific europium 665 nm energy transfer signal to reference 615 nm signal.
A general note: Time-resolved FRET reads energy transfer from a long-lived donor to a nearby acceptor.
`CCS(=O)(=O)Nc1cc(C(C)(C)C)cc(NC(=O)Nc2ccc(OCCN3CCn4c(nnc4-c4ccccc4SC)C3)c3c2CCC3)c1OC` [Compound 45, N-[5-tert-butyl-2-methoxy-3-({[7-(2-{3-[2-(methylsulfanyl)phenyl]-5,6-dihydro[1,2,4]triazolo[4,3-a]pyrazin-7(8H)-yl}ethoxy)-2,3-dihydro-1H-inden-4-yl]carbamoyl}amino)phenyl]ethanesulfonamide]: the inhibition at 0.1 µM lay within 80 to 100%. Regarding `COc1c(NC(=O)Nc2ccc(OCCN3CCn4c(nnc4-c4cccc(O)c4)C3)c3c2CCC3)cc(C(C)(C)C)cc1NS(C)(=O)=O` [Compound 46, N-(5-tert-butyl-3-{[(7-{2-[3-(3-hydroxyphenyl)-5,6-dihydro[1,2,4]triazolo[4,3-a]pyrazin-7(8H)-yl]ethoxy}-2,3-dihydro-1H-inden-4-yl)carbamoyl]amino}-2-methoxyphenyl)methanesulfonamide], the inhibition at 0.1 µM was in the range of 60 to 80%. Same read-out and setting: under `COc1c(NC(=O)Nc2ccc(OCCN3CCn4c(nnc4-c4ccc(SCCO)cc4)C3)c3c2CCC3)cc(C(C)(C)C)cc1NS(C)(=O)=O` [Compound 47, N-(5-tert-butyl-3-{[(7-{2-[3-{4-[(2-hydroxyethyl)sulfanyl]phenyl}-5,6-dihydro[1,2,4]triazolo[4,3-a]pyrazin-7(8H)-yl]ethoxy}-2,3-dihydro-1H-inden-4-yl)carbamoyl]amino}-2-methoxyphenyl)methanesulfonamide] stands 60 to 80%.

The same experiment, now with this note: Concentration 1 μM.
`CCCSc1ccccc1-c1nnc2n1CCN(CCOc1ccc(NC(=O)Nc3cc(C(C)(C)C)cc(NS(=O)(=O)CC)c3OC)c3c1CCC3)C2` [Compound 50, N-[5-tert-butyl-2-methoxy-3-({[7-(2-{3-[2-(propylsulfanyl)phenyl]-5,6-dihydro[1,2,4]triazolo[4,3-a]pyrazin-7(8H)-yl}ethoxy)-2,3-dihydro-lH-inden-4-yl]carbamoyl}amino)phenyl] ethanesulfonamide]: the “P38α Inhibition” value was “+++++ (+++++ = Inhibition ≥80% ≥ 100%)”.

The same experiment, now with this note: Concentration 1 μM; read-out: P38α Inhibition.
Regarding `COc1c(NC(=O)Nc2ccc(OCCN3CCn4c(nnc4-c4cc(Cl)ccc4O)C3)c3c2CCC3)cc(C(C)(C)C)cc1NS(C)(=O)=O` [Compound 48, N-(5-tert-butyl-3-{[(7-{2-[3-(5-chloro-2-hydroxyphenyl)-5,6-dihydro[1,2,4]triazolo[4,3-a]pyrazin-7(8H)-yl]ethoxy}-2,3-dihydro-1H-inden-4-yl)carbamoyl]amino}-2-methoxyphenyl)methanesulfonamide], the inhibition at 1 µM lay within 80 to 100%.

For `CCS(=O)(=O)Nc1cc(C(C)(C)C)cc(NC(=O)Nc2ccc(OCCN3CCn4c(nnc4-c4ccc(O)cc4O)C3)c3c2CCC3)c1OC` [Compound 49, N-(5-tert-butyl-3-{[(7-{2-[3-(2,4-dihydroxyphenyl)-5,6-dihydro[1,2,4]triazolo[4,3-a]pyrazin-7(8H)-yl]ethoxy}-2,3-dihydro-1H-inden-4-yl)carbamoyl]amino}-2-methoxyphenyl)ethanesulfonamide], the inhibition at 1 µM is 80 to 100%.

For `CCS(=O)(=O)Nc1cc(C(C)(C)C)cc(NC(=O)Nc2ccc(OCCN3CCn4c(nnc4-c4cc(Cl)ccc4O)C3)c3c2CCC3)c1OC` [Compound 51, N-(5-tert-butyl-3-{[(7-{2-[3-(5-chloro-2-hydroxyphenyl)-5,6-dihydro[1,2,4]triazolo[4,3-a]pyrazin-7(8H)-yl]ethoxy}-2,3-dihydro-1H-inden-4-yl)carbamoyl]amino}-2-methoxyphenyl)ethanesulfonamide], the inhibition at 1 µM was in the range of 80 to 100%.

With `CC(=O)Nc1cc2c(s1)CCN(C(=O)COc1ccc(NC(=O)Nc3cc(C(C)(C)C)nn3-c3ccc(C)cc3)c3c1CCC3)C2` [Compound 52, N-[5-({[7-({[3-tert-butyl-1-(4-methylphenyl)-1H-pyrazol-5-yl]carbamoyl}amino)-2,3-dihydro-1H-inden-4-yl]oxy}acetyl)-4,5,6,7-tetrahydrothieno[3,2-c]pyridin-2-yl] acetamide], the inhibition at 1 µM lay in the range of 60 to 80%. On to `COc1ccc(-n2nc(C(C)(C)C)cc2NC(=O)Nc2ccc(OCC(=O)N3CCn4c(nnc4C(F)(F)F)C3)c3c2CCC3)cc1Cl` [Compound 53, 1-[3-tert-butyl-1-(3-chloro-4-methoxyphenyl)-1H-pyrazol-5-yl]-3-(7-{2-oxo-2-[3-(trifluoromethyl)-5,6-dihydro[1,2,4]triazolo[4,3-a]pyrazin-7(8H)-yl]ethoxy}-2,3-dihydro-1H-inden-4-yl)urea], for which the inhibition at 1 µM lay within 40 to 60%. On to `CCOC(=O)c1c(NC(=O)C2CC2)sc2c1CCN(C(=O)COc1ccc(NC(=O)Nc3cc(C(C)(C)C)nn3-c3ccc(C)cc3)c3c1CCC3)C2` [Compound 54, ethyl 6-({[7-({[3-tert-butyl-1-(4-methylphenyl)-1H-pyrazol-5-yl]carbamoyl}amino)-2,3-dihydro-1H-inden-4-yl]oxy}acetyl)-2-[(cyclopropylcarbonyl)amino]-4,5,6,7-tetrahydrothieno[2,3-c]pyridine-3-carboxylate], for which the inhibition at 1 µM was < 20%.

On to `CC(=O)Nc1cc2c(s1)CCN(C(=O)COc1ccc(NC(=O)Nc3cc(C(C)(C)C)nn3-c3ccc(C4CCCCC4)cc3)c3c1CCC3)C2` [Compound 55, N-[5-({[7-({[3-tert-butyl-1-(4-cyclohexylphenyl)-1H-pyrazol-5-yl]carbamoyl}amino)-2,3-dihydro-1H-inden-4-yl]oxy}acetyl)-4,5,6,7-tetrahydrothieno[3,2-c]pyridin-2-yl]acetamide], for which the inhibition at 1 µM was < 20%.

In the case of `Cc1ccc(-n2nc(C(C)(C)C)cc2NC(=O)Nc2ccc(OCC(=O)N3CCn4c(nnc4C(F)(F)F)C3)c3c2CCC3)cc1Cl` [Compound 56, 1-[3-tert-butyl-1-(3-chloro-4-methylphenyl)-1H-pyrazol-5-yl]-3-(7-{2-oxo-2-[3-(trifluoromethyl)-5,6-dihydro[1,2,4]triazolo[4,3-a]pyrazin-7(8H)-yl]ethoxy}-2,3-dihydro-1H-inden-4-yl)urea], the inhibition at 1 µM fell in the range of 40 to 60%.

For the compound `Cc1ccc(-n2nc(C(C)(C)C)cc2NC(=O)Nc2ccc(OCC(=O)N3CCn4c(nnc4-c4ccccc4)C3)c3c2CCC3)cc1` [Compound 57, 1-[3-tert-butyl-1-(4-methylphenyl)-1H-pyrazol-5-yl]-3-{7-[2-oxo-2-(3-phenyl-5,6-dihydro[1,2,4]triazolo[4,3-a]pyrazin-7(8H)-yl)ethoxy]-2,3-dihydro-1H-inden-4-yl}urea], the inhibition at 1 µM lay in the range of 60 to 80%. As to `COc1ccc(-c2nnc3n2CCN(C(=O)COc2ccc(NC(=O)Nc4cc(C(C)(C)C)nn4-c4ccccc4)c4c2CCC4)C3)cc1Cl` [Compound 58, 1-(3-tert-butyl-1-phenyl-1H-pyrazol-5-yl)-3-(7-{2-[3-(3-chloro-4-methoxyphenyl)-5,6-dihydro[1,2,4]triazolo[4,3-a]pyrazin-7(8H)-yl]-2-oxoethoxy}-2,3-dihydro-1H-inden-4-yl)urea], the inhibition at 1 µM fell in the range of 40 to 60%.

`CCCN1CCN(CCOc2ccc(NC(=O)Nc3cc(C(C)(C)C)nn3-c3ccc(C)cc3)c3c2CCC3)CC1=O` [Compound 59, 1-[3-tert-butyl-1-(4-methylphenyl)-1H-pyrazol-5-yl]-3-{7-[2-(3-oxo-4-propylpiperazin-1-yl)ethoxy]-2,3-dihydro-1H-inden-4-yl}urea]: the inhibition at 1 µM was 60 to 80%. Turning to `CC(C)(C)c1cc(NC(=O)Nc2ccc(OCCN3CCN(CC4CC4)C(=O)C3)c3c2CCC3)n(-c2ccc(F)cc2)n1` [Compound 60, 1-[3-tert-butyl-1-(4-fluorophenyl)-1H-pyrazol-5-yl]-3-(7-{2-[4-(cyclopropylmethyl)-3-oxopiperazin-1-yl]ethoxy}-2,3-dihydro-1H-inden-4-yl)urea], the inhibition at 1 µM fell in the range of 60 to 80%.
